In ChEMBL document CHEMBL3885861, “Open TG-GATES”:

Organism: Rattus norvegicus
Test: Open TG-GATES - Regimen: Single
Type: toxicity, organism-based, Sprague-Dawley
Set-up: regimen Single, gender Male, age 6 weeks
Conditions: in vivo, po, 300 mg/kg, route gavage, dose level Middle; for APTT / Bas / Eos / Fbg / Hb / Ht / Lym / MCH / MCHC / MCV / Mono / Neu / PT / Plat / RBC / Ret / WBC: tissue Blood; for KIDNEY_L / KIDNEY_R / KIDNEY_TOTAL: tissue Kidney; for LIVER: tissue Liver; for A/G / ALP / ALT / AST / BUN / CRE / Ca / Cl / DBIL / GLC / IP / K / LDH / Na / PL / RALB / TBIL / TC / TG / TP / gamma-GTP: tissue Plasma

## CN(C)[C@@H]1C(O)=C(C(N)=O)C(=O)[C@@]2(O)C(O)=C3C(=O)c4c(O)cccc4[C@@](C)(O)[C@H]3C[C@@H]12 [TETRACYCLINE]
3 h
  TERMINAL_BW: 186.7 g
  APTT: 16.4 s
  Bas: 0%
  Eos: 0.6%
  Fbg: 198 mg/dL
  Hb: 13.6 g/dL
  Ht: 41%
  Lym: 76.4%
  MCH: 21.9 pg
  MCHC: 33.1%
  MCV: 66.2 fL
  Mono: 8.4%
  Neu: 14.8%
  PT: 12.3 s
  Plat: 97.2 x10_4/uL
  RBC: 619.2 x10_4/ul
  Ret: 10%
  WBC: 122.2 x10_2/uL
  KIDNEY_L: 0.9 g
  KIDNEY_R: 0.9 g
  KIDNEY_TOTAL: 1.8 g
  LIVER: 9 g
  A/G: 1.9
  ALP: 940.2 IU/L
  ALT: 42.2 IU/L
  AST: 74.4 IU/L
  BUN: 13.2 mg/dL
  CRE: 0.5 mg/dL
  Ca: 10.9 mg/dL
  Cl: 104.6 meq/L
  DBIL: 0.026 mg/dL
  GLC: 179.6 mg/dL
  IP: 11.5 mg/dL
  K: 5.4 meq/L
  LDH: 103 IU/L
  Na: 137.2 meq/L
  PL: 129.6 mg/dL
  RALB: 3.6 g/dL
  TBIL: 0.4 mg/dL
  TC: 71.4 mg/dL
  TG: 39.4 mg/dL
  TP: 5.5 g/dL
  gamma-GTP: 1.6 IU/L
6 h
  TERMINAL_BW: 183.9 g
  APTT: 17.1 s
  Bas: 0%
  Eos: 0.6%
  Fbg: 206.8 mg/dL
  Hb: 13.4 g/dL
  Ht: 40.3%
  Lym: 78.6%
  MCH: 22.5 pg
  MCHC: 33.3%
  MCV: 67.7 fL
  Mono: 5.6%
  Neu: 15.4%
  PT: 12.1 s
  Plat: 103.8 x10_4/uL
  RBC: 595.2 x10_4/ul
  Ret: 10.1%
  WBC: 91.7 x10_2/uL
  KIDNEY_L: 0.9 g
  KIDNEY_R: 0.9 g
  KIDNEY_TOTAL: 1.7 g
  LIVER: 8.3 g
  A/G: 2.1
  ALP: 930.4 IU/L
  ALT: 36.4 IU/L
  AST: 72.4 IU/L
  BUN: 12.4 mg/dL
  CRE: 0.4 mg/dL
  Ca: 10.7 mg/dL
  Cl: 106 meq/L
  DBIL: 0.012 mg/dL
  GLC: 193.8 mg/dL
  IP: 11.1 mg/dL
  K: 5.2 meq/L
  LDH: 104.4 IU/L
  Na: 137.2 meq/L
  PL: 130.6 mg/dL
  RALB: 3.6 g/dL
  TBIL: 0.4 mg/dL
  TC: 72.8 mg/dL
  TG: 49.4 mg/dL
  TP: 5.4 g/dL
  gamma-GTP: 1.4 IU/L
9 h
  TERMINAL_BW: 180.6 g
  APTT: 16.6 s
  Bas: 0%
  Eos: 0.6%
  Fbg: 211 mg/dL
  Hb: 13.1 g/dL
  Ht: 39.7%
  Lym: 79.6%
  MCH: 21.7 pg
  MCHC: 33.1%
  MCV: 65.7 fL
  Mono: 7.6%
  Neu: 12.4%
  PT: 12.3 s
  Plat: 102.2 x10_4/uL
  RBC: 603.4 x10_4/ul
  Ret: 9.1%
  WBC: 101.6 x10_2/uL
  KIDNEY_L: 0.8 g
  KIDNEY_R: 0.8 g
  KIDNEY_TOTAL: 1.7 g
  LIVER: 7.5 g
  A/G: 2.4
  ALP: 849.2 IU/L
  ALT: 37 IU/L
  AST: 71.2 IU/L
  BUN: 13.4 mg/dL
  CRE: 0.4 mg/dL
  Ca: 10.6 mg/dL
  Cl: 106.2 meq/L
  DBIL: 0.036 mg/dL
  GLC: 182.8 mg/dL
  IP: 10.4 mg/dL
  K: 4.7 meq/L
  LDH: 92.6 IU/L
  Na: 138.4 meq/L
  PL: 126.8 mg/dL
  RALB: 3.8 g/dL
  TBIL: 0.4 mg/dL
  TC: 75.6 mg/dL
  TG: 24.6 mg/dL
  TP: 5.4 g/dL
  gamma-GTP: 2.2 IU/L
24 h
  TERMINAL_BW: 200.3 g
  APTT: 15.9 s
  Bas: 0%
  Eos: 0.8%
  Fbg: 202.8 mg/dL
  Hb: 13 g/dL
  Ht: 39.3%
  Lym: 83.6%
  MCH: 21.6 pg
  MCHC: 33.2%
  MCV: 65 fL
  Mono: 8.2%
  Neu: 7.4%
  PT: 12.1 s
  Plat: 117.3 x10_4/uL
  RBC: 605 x10_4/ul
  Ret: 9.9%
  WBC: 102.9 x10_2/uL
  KIDNEY_L: 0.9 g
  KIDNEY_R: 0.9 g
  KIDNEY_TOTAL: 1.9 g
  LIVER: 8.5 g
  A/G: 2.2
  ALP: 1031.8 IU/L
  ALT: 41.6 IU/L
  AST: 73.8 IU/L
  BUN: 18.4 mg/dL
  CRE: 0.5 mg/dL
  Ca: 11.3 mg/dL
  Cl: 105 meq/L
  DBIL: 0.016 mg/dL
  GLC: 184.4 mg/dL
  IP: 9.9 mg/dL
  K: 5 meq/L
  LDH: 96.8 IU/L
  Na: 141 meq/L
  PL: 149.2 mg/dL
  RALB: 3.8 g/dL
  TBIL: 0.4 mg/dL
  TC: 80.8 mg/dL
  TG: 57.2 mg/dL
  TP: 5.6 g/dL
  gamma-GTP: 1.4 IU/L
